{"source": "patent US20030059451A1", "about": "“Use of orally administered dehydroepiandrosterone, precursors and derivatives thereof in order to improve the papery aspect of the skin” (priority 2000, published 2003)", "format_in_all_cases": "in vivo, healthy volunteers (men and women)", "key": {"[1]": {"test_system": "healthy volunteers, of both sexes, 60 to 80 years old", "assay": "Clinical evaluation of the weathered (papyrus-like) appearance of the skin, randomized double-blind study versus placebo", "conditions": "12 months; for variation in the weathered (papyrus-like) appearance relative to T0 (clinical score 0 to 9): back of a hand, 50 mg/day orally, FIG. 1", "method": "(§1) The evaluation was carried out using a randomized double-blind clinical study on 70 individuals (35 men and 35 women). The inclusion criteria were as follows: healthy volunteers, of both sexes, free of any severe pathological condition and 60 to 80 years old.\n(§2) The treatment consisted, for 12 months, of a daily dose of 50 mg of DHEA, taken in the morning, in the form of a breakable tablet, for half the individuals, or as a placebo for the other half of the individuals.\nThe weathered (papyrus-like) appearance is evaluated clinically, blind, on the back of a hand at the start of treatment (T0) and at the end of treatment (T12), by the same clinician.\nThe weathered (papyrus-like) appearance is represented by a clinical score ranging from 0 (weathered appearance absent or only very slightly noticeable) to 9 (very marked weathered appearance).\n(§3) The statistical analysis is performed using the Wilcoxon test."}, "[2]": {"test_system": "healthy volunteers, of both sexes, 60 to 80 years old", "assay": "Elasticity of the skin measured with the Derma Torque Meter, randomized double-blind study versus placebo", "conditions": "for Elasticity of the skin of the forearm (ratio of extensibility to recovery): ventral side of the forearm", "method": "as §1, §2\nThe elasticity of the skin was evaluated with the Derma Torque Meter® (DTM® Dia-Stron Limited, Andover, Hampshire, United Kingdom). The biomechanical properties (elasticity) of the skin of the ventral side of the forearm is measured. The DTM® makes it possible to study the response of the skin to a deformation applied in the direction parallel to its surface. The rotation of a disk stuck to the skin is measured and the elasticity of the skin is thus evaluated, which is one of the best markers of aging (Escoffier C. et al. (1989), J. Invest. Dermatol., 93, 353-357).\nThe elasticity is expressed as the ratio of extensibility to recovery.\nas §3"}, "[3]": {"test_system": "healthy volunteers, of both sexes, 60 to 80 years old", "assay": "Clinical evaluation of the slackening of the skin, randomized double-blind study versus placebo", "conditions": "for Slackening of the skin of the forearm (clinical score 0 to 9): ventral side of the forearm", "method": "as §1, §2\nThe slackening of the skin is evaluated clinically, blind, on the ventral side of the forearm and on the skin of the face at the start of treatment (T0) and at the end of treatment (T12), by the same clinician. The slackening of the skin is represented by a clinical score ranging from 0 (slight or hardly noticeable slackening) to 9 (very marked slackening). The statistical analysis is performed using the Wilcoxon test."}, "[4]": {"conditions": "after treatment with DHEA administered orally, 50 mg/day, 12 months"}}, "data": [{"smiles": "C[C@]12CC[C@H](O)CC1=CC[C@@H]1[C@@H]2CC[C@]2(C)C(=O)CC[C@@H]12", "note": "[DHEA, dehydroepiandrosterone]", "values": [{"measurement": "variation in the weathered (papyrus-like) appearance relative to T0 (clinical score 0 to 9)", "setting": "[1]; group of men", "value": "avoid this degradation"}, {"measurement": "variation in the weathered (papyrus-like) appearance relative to T0 (clinical score 0 to 9)", "setting": "[1]; group of women, significant relative to placebo (p=0.005)", "value": "decrease in the mean scores"}, {"measurement": "effect on the weathered (papyrus-like) appearance of the skin", "setting": "[1]; overall conclusion, after oral administration, 50 mg/day", "value": "improves the weathered (papyrus-like) appearance of the skin"}, {"measurement": "Elasticity of the skin of the forearm (ratio of extensibility to recovery)", "setting": "[2]; T0 (start of treatment)", "value": 0.36}, {"measurement": "Elasticity of the skin of the forearm (ratio of extensibility to recovery)", "setting": "[2]; T12 (end of treatment), 50 mg/day orally, 12 months, Wilcoxon P = 0.55", "value": 0.31}, {"measurement": "variation in the elasticity of the skin after treatment", "setting": "[2]; [4]", "value": "do not significantly vary"}, {"measurement": "Slackening of the skin of the face (clinical score 0 to 9)", "setting": "[3]; T0 (start of treatment)", "value": 6.69}, {"measurement": "Slackening of the skin of the forearm (clinical score 0 to 9)", "setting": "[3]; T0 (start of treatment)", "value": 5.44}, {"measurement": "Slackening of the skin of the face (clinical score 0 to 9)", "setting": "[3]; T12 (end of treatment), 50 mg/day orally, 12 months, Wilcoxon P = 0.5", "value": 6.81}, {"measurement": "Slackening of the skin of the forearm (clinical score 0 to 9)", "setting": "[3]; T12 (end of treatment), 50 mg/day orally, 12 months, Wilcoxon P = 0.15", "value": 7.19}, {"measurement": "variation in the slackening of the skin after treatment", "setting": "[3]; [4]", "value": "do not significantly vary"}]}]}
